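Interpolation was linear, between the two tested concentrations surrounding the appropriate level; five concentrations were tested over 48 hours in 96-well plates. GI50 is the concentration that inhibits growth by half. TGI: concentration producing complete growth inhibition.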
Assays:
Test in all cases: NCI anticancer screen, dose series, 48 h
[1] = system: SNB-75 CNS
[2] = system: KM12 colon
[3] = system: K-562 leukemia
[4] = system: OVCAR-8 ovarian
[5] = system: HOP-62 NSCLC
[6] = system: ACHN renal
[7] = system: MCF7 breast
[8] = system: RXF 393 renal
[9] = system: HOP-92 NSCLC
[10] = system: SF-268 CNS
[11] = system: RPMI-8226 leukemia
[12] = system: NCI-H23 lung
[13] = system: SNB-19 CNS
[14] = system: BT-549 breast
[15] = system: DU-145 prostate
[16] = system: EKVX NSCLC
[17] = system: A549 NSCLC
[18] = system: HS 578T breast
[19] = system: SK-OV-3 ovarian
[20] = system: UACC-62 melanoma
[21] = system: U251 CNS
[22] = system: IGROV1 ovarian
[23] = system: NCI-H460 lung
[24] = system: UACC-257 melanoma
[25] = system: CAKI-1 renal
[26] = system: A498 renal
[27] = system: T-47D breast
[28] = system: SF-539 CNS
[29] = system: UO-31 renal
[30] = system: MDA-MB-435
[31] = system: HCT-116 colon
[32] = system: NCI-H522 lung
[33] = system: CCRF-CEM leukemia
[34] = system: TK-10 renal
[35] = system: NCI-H226 lung
[36] = system: HL-60(TB) leukemia
[37] = system: 786-0 renal

C#C[C@]1(O)CC[C@H]2[C@@H]3CC=C4c5sc(Nc6nc(C)cc(OC)n6)nc5CC[C@]4(C)[C@H]3CC[C@@]21C
GI50 [1]: 0.864 µM | TGI [1]: 84.8 µM | GI50 [2]: 3.16 µM | TGI [2]: > 100 µM | GI50 [3]: 0.528 µM | TGI [3]: > 100 µM | GI50 [4]: 4.16 µM | TGI [4]: > 100 µM | GI50 [5]: 2.01 µM | TGI [5]: 35.2 µM | GI50 [6]: 1.19 µM | TGI [6]: > 100 µM | GI50 [7]: 1.41 µM | TGI [7]: > 100 µM | GI50 [8]: 0.161 µM | TGI [8]: 0.497 µM | GI50 [9]: 2.65 µM | TGI [9]: 7.69 µM | GI50 [10]: 5.47 µM | TGI [10]: > 100 µM | GI50 [11]: 0.239 µM | TGI [11]: 0.899 µM | GI50 [12]: 3.93 µM | TGI [12]: > 100 µM | GI50 [13]: 0.986 µM | TGI [13]: > 100 µM | GI50 [14]: 4.5 µM | TGI [14]: 79.9 µM | GI50 [15]: 3.25 µM | TGI [15]: > 100 µM | GI50 [16]: 2.39 µM | TGI [16]: > 100 µM | GI50 [17]: 2.97 µM | TGI [17]: > 100 µM | GI50 [18]: 0.323 µM | TGI [18]: 2.19 µM | GI50 [19]: 1.55 µM | TGI [19]: 9.13 µM | GI50 [20]: 0.54 µM | TGI [20]: 2.73 µM | GI50 [21]: 0.575 µM | TGI [21]: 73.1 µM | GI50 [22]: 3.44 µM | TGI [22]: > 100 µM | GI50 [23]: 1.82 µM | TGI [23]: > 100 µM | GI50 [24]: 1.74 µM | TGI [24]: 4.82 µM | GI50 [25]: 1.55 µM | TGI [25]: > 100 µM | GI50 [26]: 1.51 µM | TGI [26]: 5.93 µM | GI50 [27]: 2.57 µM | TGI [27]: > 100 µM | GI50 [28]: 0.264 µM | TGI [28]: 1.43 µM | GI50 [29]: 0.575 µM | TGI [29]: 3.18 µM | GI50 [30]: 2.35 µM | TGI [30]: > 100 µM | GI50 [31]: 1.24 µM | TGI [31]: > 100 µM | GI50 [32]: 3.02 µM | TGI [32]: > 100 µM | GI50 [33]: 1.21 µM | TGI [33]: > 100 µM | GI50 [34]: 14.9 µM | TGI [34]: > 100 µM | GI50 [35]: > 100 µM | TGI [35]: > 100 µM | GI50 [36]: 0.531 µM | TGI [36]: 5.38 µM | GI50 [37]: 0.379 µM | TGI [37]: 2.28 µM
